Results taken from patent publication US8309768B2, “FTY720-derived anticancer agents” (The Ohio State University Research Foundation, priority 2010, dated 2012).
pIC50: −log10 of the molar value.

How the values were obtained:
[1] = target: T1, S1P1 receptor-overexpressing Huh7 cells (Homo sapiens, UniProt P21453); test: Immunocytochemical analysis of S1P1 receptor internalization; format: cell-based; conditions: immunocytochemistry
T1 construct: expressed in transfected cells
Procedure: Immunocytochemistry. Immunocytochemical analysis of S1P1 internalization and PKCδ nuclear translocation were performed as described. […] Briefly, treated cells were washed, fixed with 4% paraformaldehyde, and permeabilized with 0.1% Triton X-100. After blocking with 2% FBS, cells were incubated with rabbit anti-S1P1 or rabbit anti-PKCδ antibodies (1:200 dilution, 4° C., 24 h), followed by Alexa Fluor 488-conjugated goat anti-rabbit IgG (room temperature, 1 h). Nuclei were counterstained with a 4,6-diamidino-2-phenylindole (DAPI)-containing mounting medium (Vector Laboratories, Burlingame, Calif.).

[2] = tested on: SphK2 siRNA-transfected Huh7 cells; test: Cell viability after siRNA-mediated knockdown of SphK2; format: cell-based; conditions: SphK2 siRNA vs scrambled
Procedure: (§1) Cell viability assay. Cell viability was assessed by 3-(4,5-dimethylthiazol-2-yl)-2,5-diphenyl-2H-tetrazolium bromide (MTT) assays in six replicates. Cells were seeded (4,000 cells/well; 96-well plate) for 24 h and treated with test agents in 5% FBS-supplemented DMEM. After treatment, cells were incubated in medium containing 0.5 mg/ml MTT (37° C., 2 h). Reduced MTT was dissolved in DMSO (200 μL/well) and absorbances measured at 570 nm.
Small interfering (si)RNA- or short hairpin (sh)RNA-mediated knockdown. PLC5 and Huh7 cells were transfected with the following siRNA duplexes or shRNA plasmids according to the manufacturer's protocol for the knockdown of target genes: siRNA: glutathione S-transferase (GST)-π and sphingosine kinase 2 (SphK2); shRNA constructs: pKD-PKCδ-v2. Stable clones were isolated from Huh7 cells transfected with shRNA plasmids were further subjected to stable clone isolation by geneticin. Immunoblotting was performed to confirm the knockdowns.

[3] = tested on: Hep3B cells; test: MTT cell viability assay, Hep3B; format: cell-based; conditions: Homo sapiens, 24 h of treatment
Procedure: (§2) Cell lines, culture and reagents. The HCC cell lines Hep3B, PLC5 and Huh7, as well as primary nonmalignant human hepatocytes were used in this study. Cancer cells were cultured in Dulbecco's Modified Eagle's medium (DMEM) supplemented with 10% fetal bovine serum (FBS). Hepatocytes were maintained in defined Hepatocyte Culture Medium. […] Various polyclonal and monoclonal antibodies were used for western blotting, immunocytochemical, and flow cytometric analyses.
as §1

[4] = tested on: Huh7 cells; test: MTT cell viability assay, Huh7; format: cell-based; conditions: Homo sapiens, Huh-7, 24 h of treatment, MTT
Procedure: as §2, §1

[5] = tested on: CLL cells; test: Western blot analysis in CLL cells (PARP, caspase 3, caspase 9); format: cell-based
From the text: Western blot analysis as carried out to further observe the effects of OSU-2S in CLL cells. […] OSU-2S in CLL activates caspase, as evidenced by cleavage of poly (ADP-ribose) polymerase (PARP). Jurkat cell with or without UV irradiation were included as controls. […] OSU-2S was also shown to activate caspase 3 in CLL cells. […] Finally, OSU-2S activates caspase 9 in CLL.

[6] = tested on: CLL cells; test: ROS induction in CLL cells (dihydroethidium staining); format: cell-based; conditions: 8 μM, untreated about 40%
Procedure: The induction of Reactive Oxygen Species (ROS) in CLL cells by OSU-2S was detected by staining OSU-2S 8 μM treated CLL cells with dihyroethidium. The ROS in the cells oxidizes DHE to ethidium staining the nucleus with a bright red fluorescence detected by flow cytometer. A hydrogen peroxide solution was used as a control.

[7] = target: T1, S1P1 receptor-overexpressing Huh7 cells; test: Cell viability in stable S1P1 receptor transfectants; format: cell-based; conditions: two stable S1P1 clones vs wild-type Huh7
Procedure: as §1
Overexpression of S1P1 Receptors. Huh7 or Hep3B cells were transfected with plasmids encoding S1PR1, Flag-tagged GST-π or hemagglutinin (HA)-tagged, CA-Akt. The corresponding empty vectors were used as controls. Stable clones were selected over 3 weeks by geneticin, and the expression of cloned proteins was confirmed by Western blotting.

[8] = tested on: primary CLL cells; test: Cytotoxicity in primary CLL cells (Annexin V / propidium iodide flow cytometry); format: cell-based
Procedure: Antitumor and other effects of OSU-2S were also evaluated in Chronic Lymphoid Leukemia cells. OSU-2S cytotoxicity in primary CLL cells is measured at 24 hrs by staining for Annexin V and Propidium Iodide using Flow cytometer. The number of live cells (stained negative for both the stains) were normalized to untreated control. Fludarabine metabolite (2-Fara) was used as a control.
The effect of OSU-2S was evaluated in 3 different CLL cell lines (WROTH<THOU, and RAHUE) over a 24 hour period, as shown in FIG. 9. Time dependent OSU-2S cytotoxicity in primary CLL cells was measured by treating the cells with OSU-2S (8 μM) for indicated period of time and washed and cultured in the fresh media for 24 hr. The number of live cells stained negative for Annexin V and Propidium Iodide were measured at 24 hrs by using Flowcytometer and normalized to untreated control.
CD37 activation and OSU-2S produced enhanced cytotoxicity in CLL cells, as detected by flow cytometer at 24 hr. in CLL cells treated with CD37 antibody and cross linker or OSU-2S 8 μM or with both are stained for Annexin V and propidium iodide at 24 hr.

[9] = tested on: normal human hepatocytes; test: MTT cell viability assay, normal hepatocytes; format: cell-based; conditions: 24 h
Procedure: as §2, §1

[10] = tested on: subcutaneous Hep3B tumors; test: Ectopic (subcutaneous) Hep3B xenograft tumor model; format: in vivo, athymic nude mice
Procedure: Xenograft tumor models. Ectopic tumors were established in athymic nude mice by subcutaneous injection of 1×10^6 Hep3B cells in a total volume of 0.1 ml of serum-free medium containing 50% Matrigel. Mice with established tumors were randomized to five groups (n=8) that received daily i.p. injections of OSU-2S or FTY720 at 5 or 10 mg/kg, or the vehicle. Tumor burdens were determined weekly using calipers (volume=width^2×length×0.52). Body weights were measured weekly. At the study endpoint, tumors were harvested, snap-frozen and stored at −80° C. for biomarker analysis. Blood and tissues were collected for evaluation of complete blood counts, serum chemistry and histopathology.

[11] = tested on: orthotopic Hep3B-luc tumors; test: Orthotopic Hep3B-luc xenograft tumor model; format: in vivo, athymic nude mice; set-up: dose or concentration left out as unconfirmed; conditions: end of treatment (42 days)
From the text: Orthotopic tumors were established by direct intrahepatic injection of luciferase-expressing Hep3B (Hep3B-luc) cells as described. Omar et al., Mol Pharmacol, 76, 957-968 (2009). The establishment and growth of tumors were monitored by bioluminescent imaging using the IVIS™ imaging system (Xenogen, Alameda, Calif.). […] All animal use described in this manuscript was done in accordance with protocols approved by The Ohio State University Institutional Animal Care and Use Committee.

T1 sequence (P21453 whole entry): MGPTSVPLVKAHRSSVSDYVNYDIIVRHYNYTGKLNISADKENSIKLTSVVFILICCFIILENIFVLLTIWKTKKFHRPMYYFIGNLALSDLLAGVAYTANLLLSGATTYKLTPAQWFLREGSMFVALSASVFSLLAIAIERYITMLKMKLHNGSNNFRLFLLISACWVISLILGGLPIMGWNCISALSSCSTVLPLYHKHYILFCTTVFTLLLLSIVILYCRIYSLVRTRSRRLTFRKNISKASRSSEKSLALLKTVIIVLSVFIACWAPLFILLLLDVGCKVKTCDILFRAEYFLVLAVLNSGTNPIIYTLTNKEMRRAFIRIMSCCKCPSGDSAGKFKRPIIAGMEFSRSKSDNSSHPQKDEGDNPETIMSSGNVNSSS

## CCC[C@@](N)(CO)CCc1ccc(OCCCCCC(C)C)cc1 [OSU-2S, (S)-2-amino-2-(4-[(6-methylheptyl)-oxy]phenethyl)pentan-1-ol]
[1]
  S1P1 receptor internalization and clustering in the cytoplasm: failed to show any appreciable effect
[2]
  effect of SphK2 knockdown on antiproliferative activity (sensitizing effect): not observed
[3]
  pIC50: 5.62
[4]
  pIC50: 5.62
[5]; 24 and 48 hours, products at about 16-18 kD
  caspase 3 activation: caspase 3 cleaved products
[5]; 24 and 48 hours, vs untreated
  PARP cleavage: higher levels of PARP
[5]; products at about 30-34 kD
  caspase 9 activation: caspase 9 cleaved products
[6]
  DHE positive cell %: about 70%
[7]
  effect of S1P1 receptor overexpression on antiproliferative activity: no protective effect
[8]; 8 μM for indicated time, washed, cultured 24 hr, 3 CLL cell lines
  time dependent cytotoxicity: decreased number live cells over time
[8]; CLL cells, 24 hr, OSU-2S 8 μM and/or CD37 antibody and cross linker
  live cells (negative for Annexin V and propidium iodide): about 30%
[8]; primary CLL cells, 24 hrs, OSU-2S at 8 μM
  growth (live cells normalized to untreated control): about 30%
[9]
  sensitivity of normal human hepatocytes relative to malignant cells: resistant
[10]; 5 mg/kg, i.p. once daily, P<0.001
  ectopic Hep3B tumor growth vs vehicle control: completely suppressed
[10]; 10 mg/kg i.p. daily, end of 42-day treatment
  reduction of tumor volume: more than 50%
[10]; Hep3B tumor tissue homogenates, Western blot
  intratumoral biomarkers of drug activity: PKCδ and caspase-3 were activated
[11]
  reduction in bioluminescent intensity: 80%
